Test results taken from patent US11389537B2, “Drug delivery system for sustained delivery of bioactive agents” (UPM-Kymmene Corporation, priority 2011, dated 2022).
Values after ≈ are worked out from the molar mass of the structure shown. Where a name gives a salt, the structure may show the parent alone. Read-outs that look alike come from different tables or passages of the source.

Legend:
[1] = cited from earlier work
[2] = Stability in water solution of tested drugs; format: physicochemical
Excerpt: (§1) NFC has strong affinity to water, which makes drying it difficult. The residence time in the spray-drying chamber is short and therefore high temperature needs to be used in drying. If lower temperature and/or higher feeding rates were to be used, the wet material would adhere to the chamber. The application of high temperature when spray drying the aqueous suspension of NFC containing an API, increases the risk of degradation of the API during the drying process. High temperature is also a limitation for the choice of the API if its melting point is low (Table 11, showing the values of melting point (Tm), water solubility and stability in water solution of tested drugs). Generally, particles reach a maximum temperature during spraying, which is 15-20° C. below the outlet temperature of a co-current dryer.

[3] = Contact angle between matrix surface and water drop; conditions: water drop on matrix surface or pure drug
[4] = Solubility in water of tested drugs; format: physicochemical; conditions: value obtained from testing
Excerpt: as §1, with “dryer. During the particle production outlet temperatures were in the range of 120-127° C., which was sufficient for successful drying.” for “dryer.”

## COc1ccc2c(c1)c(CC(=O)O)c(C)n2C(=O)c1ccc(Cl)cc1 [Indomethacin, indomethacin]
[1]
  Solubility in water: <1 µg/mL
  Solubility in water (words): ↑ with ↑ pH
[1]; line below '↑ with ↑ pH'
  Solubility in water: <1000 µg/mL
[2]; pH 7.4, obtained from testing
  Stability in water solution (21° C.): *pH 7.4 up to 4 days
[3]
  Contact angle: 76.7

## COCCc1ccc(OCC(O)CNC(C)C)cc1 (stereo not shown) [Metoprolol tartrate, metoprolol tartrate]
[1]
  Solubility in water (words): freely
[2]; obtained from testing
  Stability in water solution (21° C.): *up to 60 days

## CC(C)Cc1ccc(C(C)C(=O)O)cc1 (stereo not shown) [Ibuprofen, ibuprofen]
[1]; 50 mM NH4OH
  Solubility (50 mM NH4OH): 6000 µg/mL (≈ 29.1 mM)

## CC(C)(C)NCC(O)COc1cccc2c1CC(O)C(O)C2 (stereo not shown) [Nadolol, nadolol]
[2]; obtained from testing
  Stability in water solution (21° C.): *up to 30 days
[4]
  solubility: 6770 µg/mL (≈ 21.9 mM)
